Laboratory results as given in patent US20260232561A1, “PEPTIDE ACTIVATING RETINOIC ACID RECEPTOR, AND COSMETIC COMPOSITION CONTAINING SAME” (SUPADELIXIR INC., priority 2023, published 2026).

Legend:
[1] = system: B16F10 cells (mouse melanocytes); experiment: inhibition of α-MSH-stimulated melanin synthesis in cells; assay type: cell-based; conditions: 72 hours; for increase in melanin induced by α-MSH stimulation: 100 nM α-MSH, peptide 1 and 10 μM; for Melanin amount (of Control): no treatment = 100
Description: • 1. […] Specifically, 1×10^5 B16F10 cells (mouse melanocytes) were seeded into each well of a 6-well microplate with DMEM serum medium. The cells were cultured in an incubator at a temperature of 37° C. and with 5% CO2 for 24 hours. […] The concentration of each peptide in the medium was set to 1 and 10 μM. […] Afterward, to measure the amount of extracellular melanin, the supernatant was taken, and the absorbance of free melanin in the medium was measured at a wavelength of 400 nm. To measure the amount of intracellular melanin, the cells were washed with PBS after removing the medium, and then the cells were lysed with 1 M NaOH at a temperature of 60° C. for 30 minutes, and the absorbance was measured at a wavelength of 400 nm. The amount of free melanin and intracellular melanin measured by absorbance were quantified, and the results are shown in Table 2. • 3.

[2] = system: RAR and RXR; experiment: in-situ proximity ligation assay (PLA) of physical binding between RAR and RXR in HaCaT cells; assay type: cell-based, human; conditions: peptide 1 and 10 μM, 30 minutes, compared to untreated control group (FIG. 1)
Description: • 1. Retinol regulates the transcription of target DNA by inducing the binding between Retinoic acid receptor (RAR) and Retinoid X Receptor (RXR). To confirm whether the peptides of Example 1 activate the binding between RXR/RAR, the effects of the peptides on the physical binding between RAR and RXR were evaluated using an in-situ proximity ligation assay (PLA) method. • 2. Specifically, 4.5×10^4 HaCaT cells (human keratinocytes) were seeded into each well of a 24-well microplate with DMEM serum medium. The cells were cultured in an incubator at a temperature of 37° C. and with 5% CO2 for 24 hours. Next, the cells were treated with each of the peptides of Example 1, and the cells were incubated under the same conditions for 30 minutes. The concentration of each peptide in the medium was set to 1 and 10 μM. The control group received no treatment. Afterward, the cells in each well were washed with PBS and fixed by treatment with 2% formaldehyde for 15 minutes, and then the cells were treated with 0.1% TritonX-100 for 5 minutes to increase antibody permeability into the cells. […] Afterward, the physical interaction of RAR and RXR antibodies was quantified by measuring luminescence signals (PLA signals) detected in each cell using a fluorescence microscope (Logosbio/CelenaS, Korea), and the results are shown in FIG. 1. • 4. […]

[3] = system: P53 and POLII (RNA Polymerase II); experiment: in-situ proximity ligation assay (PLA) of physical binding between P53 and POLII in HaCaT cells; assay type: cell-based, human; conditions: peptide 1 and 10 μM, 30 minutes, compared to untreated control group (FIG. 2)
Description: • 1. To confirm whether the peptides of Example 1 increase the transcriptional activity of P53, which was related to cell anti-aging, cells were treated with the peptides of Example 1, and then the effects of the peptides on the physical binding between P53 and POLII (RNA Polymerase II) was evaluated using an in-situ proximity ligation assay (PLA) method. • 2. Specifically, 4.5×10^4 HaCaT cells (human keratinocytes) were seeded into each well of a 24-well microplate with DMEM serum medium. The cells were cultured in an incubator at a temperature of 37° C. and with 5% CO2 for 24 hours. Next, the cells were treated with each of the peptides of Example 1, and the cells were incubated under the same conditions for 30 minutes. The concentration of each peptide in the medium was set to 1 and 10 μM. The control group received no treatment. Afterward, the cells in each well were washed with PBS and fixed by treatment with 2% formaldehyde for 15 minutes, and then the cells were treated with 0.1% TritonX-100 for 5 minutes to increase antibody permeability into the cells. […] Afterward, the physical interaction of P53 and POLII antibodies was quantified by measuring luminescence signals (PLA signals) detected in each cell using a fluorescence microscope (Logosbio/CelenaS, Korea), and the results are shown in FIG. 2. • 4. […]

[4] = system: human dermal fibroblasts; experiment: immunofluorescence analysis of intracellular collagen synthesis (anti-COL1A2); assay type: cell-based; conditions: peptide 1 and 10 μM, 24 hours, compared to untreated control group (FIG. 3)
Description: • 1. Immunofluorescence analysis was performed to evaluate the effects of the peptides of Example 1 on intracellular collagen synthesis. • 2. Specifically, 4.5×10^4 human dermal fibroblasts were seeded into each well of a 24-well microplate along with CEFOgro Human MSC Growth Medium). The cells were cultured in an incubator at a temperature of 37° C. and with 5% CO2 for 24 hours. Next, the cells were treated with each of the peptides of Example 1, and the cells were incubated under the same conditions for 24 hours. The concentration of each peptide in the medium was set to 1 and 10 μM. Out of two control groups, one received no treatment, and the other was treated with 1 μM retinol. The cells in each well were washed with PBS and fixed by treatment with 4% formaldehyde for 15 minutes, and then the cells were treated with 0.1% TritonX-100 for 5 minutes to increase antibody permeability into the cells. The cells were washed with PBS solution and treated with anti-COL1A2 polyclonal antibodies (Santa Cruz, CA, USA) for 1 hour. Next, the cells were treated with mouse anti-goat IgG-FITC for 40 minutes. To stain the cytoskeleton, the cells were treated with Phalloidin-Rhodamin for 40 minutes. After mounting with DAPI-added reagent for cell nucleus staining, the cells were observed using a fluorescence microscope (Logosbio/CelenaS, Korea) and quantified using a program (NIS-Eliments-3.1).

[5] = α-MSH (100 nM) + test substance 1 uM
[6] = α-MSH (100 nM) + test substance 10 uM

Row | Compound | increase in melanin induced by α-MSH stimulation [1] | Melanin amount (of Control) [1, 5] | Melanin amount (of Control) [1, 6] | physical binding between RAR and RXR (PLA signals) [2] | physical binding between P53 and POLII (PLA signals) [3] | collagen synthesis [4]
1 | Ile-Gln-Glu-Met (IQEM) [Raragin A] | reduced | 111% | 107% | increased | increased | significantly increased
2 | CC1=C(/C=C/C(C)=C/C=C/C(C)=C/CO)C(C)(C)CCC1 [Retinol, retinol, reference compound] |  | 114% |  |  |  | 
3 | Thr-Val-Glu-Phe (TVEF) [Raragin B] | reduced | 109% | 106% | increased | increased | significantly increased
